Measured values taken from US6153604A, “Therapeutic substituted guanidines” (Cambridge NeuroScience, Inc., priority 1995, dated 2000).
Structures can show the parent of a compound that is named as a salt.

Tests used:
sigma receptor = assay: Sigma receptor binding assay ([3H]DTG, guinea pig brain membrane homogenates); details: displacement of [3H]DTG, guinea pig brain membranes
Experimental: Sigma Receptor Binding Assay
Briefly, frozen whole guinea-pig brains (Biotrol, Indianapolis, Ind.) were homogenized in 10 volumes (w/v) of ice-cold 320 mM sucrose using a Brinkman polytron. The homogenate was centrifuged at 1,000×g for 20 minutes at 4° C. The supernatant was centrifuged at 20,000×g for 20 minutes at 4° C. The resulting pellet was resuspended in 10 initial volumes of 50 mM Tris/HCl buffer at pH 7.4 and centrifuged at 20,000×g for 20 minutes at 4° C. The resulting pellet was resuspended in 5 initial volumes ice-cold 50 mM Tris/HCl (pH 7.4), and the final volume was adjusted to yield a protein concentration of 3 mg/ml. Aliquots of 20-ml were stored at -70° C. until used, with no detectable loss of binding.
The protein concentration in the 1-ml final incubation volume was 800 μg/ml, corresponding to 32 mg of brain tissue (original wet weight) and to a tissue concentration within the linear range for specific binding. […] Incubations were terminated after 90 minutes at room temperature by addition of 4 ml of ice-cold 50 mM Tris/HCl (pH 7.4) and rapid filtration of the membrane suspension through Whatman GF/B glass-fiber filters under vacuum, using a 48-well cell harvester (Brandel). The filters were washed 2 times with 4 ml of 50 mM Tris/HCl (pH 7.4). […] IC50 values were determined by non-linear regression analysis.

PCP receptor = PCP receptor radioligand binding assay ([3H]MK-801, rat brain membranes); details: read-out: [3H-MK801] IC50; displacement of [3H]MK-801, rat brain membranes

Row | Structure (SMILES) | IC50 (sigma receptor) | IC50 (PCP receptor)
1 | CCc1cccc(NC(=N)Nc2cc(C(F)(F)F)ccc2Cl)c1 [Compd. No. 6 (Table I), N-(3-Ethylphenyl)-N'-(2-chloro-5-trifluoromethylphenyl)guanidine hydrochloride] | 0.0142 µM | 0.0571 µM
2 | CN(C(=N)Nc1cc(Br)ccc1Br)c1cccc(S(C)(=O)=O)c1 [Compound 75] | – | 0.53 µM
3 | CCc1cccc(N(C)C(=N)Nc2cccc(Cl)c2)c1 [Compd. No. 12 (Table I)] | 0.0435 µM | 0.646 µM
4 | CCc1ccc(Cl)c(N(C)C(=N)Nc2cccc3ccccc23)c1 [Compd. No. 57 (Table I), N-(1-Naphthyl)-N'-(2-chloro-5-ethylphenyl)-N'-methylguanidine hydrochloride] | 0.136 µM | 0.0328 µM
5 | CCc1cccc(NC(=N)Nc2cc(CC)ccc2Cl)c1 [Compd. No. 8 (Table I), N-(3-Ethylphenyl)-N'-(2-chloro-5-ethylphenyl)guanidine hydrochloride] | 0.00204 µM | 0.0452 µM
6 | CSc1ccc(Cl)c(NC(=N)N(C)c2cccc(C(F)(F)F)c2)c1 [Compd. No. 66 (Table I), N-(3-Trifluoromethylphenyl)-N-methyl-N'-(2-chloro-5-methylthiophenyl)guanidine hydrochloride] | 0.421 µM | 0.00847 µM
7 | CSc1cccc(N(C)C(=N)Nc2cc(SC)ccc2Br)c1 [Compd. No. 63 (Table I), N-(3-Methylthiophenyl)-N-methyl-N'-(2-bromo-5-methylthiophenyl)guanidine] | – | 0.00215 µM
8 | N=C(Nc1cc(C(F)(F)F)ccc1Br)Nc1cccc2ccccc12 [Compd. No. 41 (Table I), N-(1-Naphthyl)-N'-(2-bromo-5-trifluoromethylphenyl)guanidine hydrochloride] | 0.0496 µM | 0.0511 µM
9 | Cc1ccc(C)c(NC(=N)Nc2cccc3ccccc23)c1 [Compd. No. 33 (Table I), N-(1-Naphthyl)-N'-(2,5-dimethylphenyl)guanidine hydrochloride] | 0.0274 µM | 0.0792 µM
10 | Cc1ccc(C)c(N(C)C(=N)Nc2cccc3ccccc23)c1 [Compd. No. 54 (Table I), N-(1-Naphthyl)-N'-(2,5-dimethylphenyl)-N'-methylguanidine hydrochloride] | 1.55 µM | 0.079 µM
11 | CCc1cccc(N(C)C(=N)N(C)c2cc(Br)ccc2Br)c1 [Compd. No. 27 (Table I), N-(3-Ethylphenyl)-N-methyl-N'-(2,5-dibromophenyl)-N'-methylguanidine hydrochloride] | 0.38 µM | 0.0355 µM
12 | CCc1ccc(Cl)c(NC(=N)Nc2cccc(I)c2)c1 [Compound 78] | – | 0.0137 µM
13 | Cc1ccc(Cl)c(NC(=N)Nc2cccc3cccnc23)c1 [Compd. No. 48 (Table I), N-(8-Quinolinyl)-N'-(2-chloro-5-methylphenyl)guanidine hydrochloride] | 0.989 µM | 0.032 µM
14 | CSc1ccc(Cl)c(NC(=N)Nc2cccc3ccccc23)c1 [Compd. No. 46 (Table I), N-(1-Naphthyl)-N'-(2-chloro-5-thiomethylphenyl)guanidine hydrochloride] | 0.0254 µM | 0.043 µM
15 | CCc1cccc(N(C)C(=N)Nc2cc(CC)ccc2Br)c1 [Compd. No. 22 (Table I), N-(3-Ethylphenyl)-N-methyl-N'-(2-bromo-5-ethylphenyl)guanidine hydrochloride] | 0.203 µM | 0.0167 µM
16 | CCc1cccc(NC(=N)Nc2cc(SC)ccc2Cl)c1 [Compd. No. 25 (Table I), N-(3-Ethylphenyl)-N'-(2-chloro-5-methylthiophenyl)guanidine hydrochloride] | 0.0158 µM | 0.0154 µM
17 | CCc1cccc(N(C)C(=N)Nc2cc(CC)ccc2F)c1 [Compd. No. 20 (Table I), N-(3-Ethylphenyl)-N-methyl-N'-(2-fluoro-5-ethylphenyl)guanidine hydrochloride] | 0.113 µM | 0.126 µM
18 | CCc1cccc(NC(=N)Nc2cc(C(F)(F)F)ccc2Br)c1 [Compd. No. 4 (Table I), N-(3-Ethylphenyl)-N'-(2-bromo-5-trifluoromethylphenyl)guanidine hydrochloride] | 0.0103 µM | 0.0869 µM
19 | CCc1ccc(Cl)c(NC(=N)N(C)c2cccc(SC)c2)c1 [Compd. No. 61 (Table I), N-(3-Methylthiophenyl)-N-methyl-N'-(2-chloro-5-ethylphenyl)guanidine hydrochloride] | 0.178 µM | 0.0125 µM
20 | N=C(Nc1cc(Br)ccc1Br)Nc1cccc2ccccc12 [Compd. No. 32 (Table I), N-(1-Naphthyl)-N'-(2,5-dibromophenyl)guanidine hydrochloride] | 0.0376 µM | 0.0486 µM

Row | Structure (SMILES) | IC50 (sigma receptor) | IC50 (PCP receptor)
21 | CN(C(=N)Nc1cc(Br)ccc1Br)c1cccc(OC(F)(F)F)c1 [Compd. No. 73 (Table I), N-(3-Trifluoromethoxyphenyl)-N'-(2,5-dibromophenyl)-N-methylguanidine hydrochloride] | – | 0.0256 µM
22 | CN(C(=N)Nc1cc(Br)ccc1Br)c1cccc(C(F)(F)F)c1 [Compd. No. 71 (Table I), N-(3-Trifluoromethylphenyl)-N-methyl-N'-(2,5-dibromophenyl)guanidine hydrochloride] | 0.224 µM | 0.034 µM
23 | CSc1ccc(Cl)c(NC(=N)N(C)c2cccc(Br)c2)c1 [Compd. No. 72 (Table I), N-(3-Bromophenyl)-N-methyl-N'-(2-chloro-5-methylthiophenyl)guanidine hydrochloride] | – | 0.00465 µM
24 | CSc1cccc(N(C)C(=N)Nc2cc(SC)ccc2Cl)c1 [Compd. No. 60 (Table I), N-(3-Methylthiophenyl)-N-methyl-N'-(2-chloro-5-methylthiophenyl)guanidine hydrochloride] | 0.48 µM | 0.00243 µM
25 | CCc1cccc(N(C)C(=N)Nc2cc(CC)ccc2Cl)c1 [Compd. No. 17 (Table I), N-(3-Ethylphenyl)-N-methyl-N'-(2-chloro-5-ethylphenyl)guanidine hydrochloride] | 0.115 µM | 0.053 µM
26 | CCc1cccc(N(C)C(=N)N(C)c2cc(CC)ccc2Cl)c1 [Compd. No. 28 (Table I), N-(3-Ethylphenyl)-N-methyl-N'-(2-chloro-5-ethylphenyl)-N'-methylguanidine hydrochloride] | – | 0.145 µM
27 | CCc1ccc(Cl)c(NC(=N)Nc2cccc3ccccc23)c1 [Compd. No. 44 (Table I), N-(1-Naphthyl)-N'-(2-chloro-5-ethylphenyl)guanidine hydrochloride] | 0.00494 µM | 0.0206 µM
28 | CCc1cccc(N(C)C(=N)N(C)c2cc(Cl)ccc2Cl)c1 [Compd. No. 26 (Table I), N-(3-Ethylphenyl)-N-methyl-N'-(2,5-dichlorophenyl)-N'-methylguanidine hydrochloride] | – | 0.0937 µM
29 | CCc1cccc(N(C)C(=N)Nc2cc(SC)ccc2Cl)c1 [Compd. No. 24 (Table I), N-13-Ethylphenyl)-N-methyl-N'-(2-chloro-5-methylthiophenyl)guanidine hydrochloride] | 0.309 µM | 0.0067 µM
30 | CCc1ccc(Cl)c(NC(=N)N(C)c2cccc(C(F)(F)F)c2)c1 [Compd. No. 67 (Table I), N-(3-Trifluoromethylphenyl)-N-methyl-N'-(2-chloro-5-ethylphenyl)guanidine hydrochloride] | 0.2 µM | 0.077 µM
31 | CCc1cccc(NC(=N)Nc2cc(CC)ccc2Br)c1 [Compd. No. 23 (Table I), N-(3-Ethylphenyl)-N'-(2-bromo-5-ethylphenyl)guanidine hydrochloride] | 0.00507 µM | 0.0383 µM
32 | CCc1cccc(NC(=N)Nc2cccc(Cl)c2)c1 [Compd. No. 3 (Table I)] | 0.0155 µM | 0.146 µM
33 | CN(C(=N)Nc1cc(Br)ccc1Br)c1cccc([S+](C)[O-])c1 (stereo not drawn) [Compound 76] | – | 0.322 µM
34 | CSc1ccc(Cl)c(NC(=N)N(C)c2cccc(I)c2)c1 [Compound 77] | – | 0.00211 µM
35 | CCc1cccc(N(C)C(=N)Nc2cc(C(F)(F)F)ccc2Cl)c1 [Compd. No. 15 (Table I), N-(3-Ethylphenyl)-N-methyl-N'-(2-chloro-5-trifluoromethylphenyl)guanidine hydrochloride] | 0.12 µM | 0.131 µM
36 | CN(C(=N)Nc1cccc2ccccc12)c1cccc(Br)c1 [Compd. No. 53 (Table I)] | – | 0.054 µM
37 | CCc1ccc(Br)c(NC(=N)N(C)c2cccc(SC)c2)c1 [Compd. No. 64 (Table I), N-(3-Methylthiophenyl)-N-methyl-N'-(2-bromo-5-ethylphenyl)guanidine hydrochloride] | 0.18 µM | –
38 | CSc1cccc(N(C)C(=N)Nc2cc(Br)ccc2Br)c1 [Compd. No. 65 (Table I), N-(3-Methylthiophenyl)-N-methyl-N'-(2,5-dibromophenyl)guanidine hydrochloride] | – | 0.00538 µM
39 | CCc1ccc(Br)c(NC(=N)N(C)c2cccc(OC(F)(F)F)c2)c1 [Compound 74] | – | 0.016 µM
40 | CN(C(=N)Nc1cc(Cl)ccc1Cl)c1cccc(C(F)(F)F)c1 [Compd. No. 68 (Table I), N-(3-Trifluoromethylphenyl)-N-methyl-N'-(2,5-dichlorophenyl)guanidine hydrochloride] | 0.11 µM | –
